Results taken from article PMC3763640, “Effect of Co-Administration of Rivaroxaban and Clopidogrel on Bleeding Time, Pharmacodynamics and Pharmacokinetics: A Phase I Study” (Pharmaceuticals, 2012).

Experiments:
healthy male subjects [1] = experiment: Bleeding time test (Surgicutt incision, forearm); type: in vivo, human; conditions: rivaroxaban 15 mg single dose, clopidogrel 300 mg day 1 + 75 mg day 2, combination with rivaroxaban on day 2; for least squares-mean relative change in bleeding time compared with baseline: 4 h after last drug administration
Method: Bleeding time tests were performed in accordance with the protocol reported by the International Committee on Standardization of the Bleeding Time. Bleeding time measurements depend on the method and on who carries out the procedure; therefore, results vary greatly between studies. To reduce variability, one study nurse was specifically trained in the procedure of the test before this study. The same study nurse carried out all measurements at all time points for each subject. […] A sphygmomanometer on the upper arm was inflated to 40 mmHg for 30 seconds before the incision was made and maintained at 40 mmHg until the end of the procedure. The bleeding time incision was made by placing a Surgicutt Adult® (ITC, Edison, NJ, USA) device (used in accordance with the recommendations of the manufacturer, as specified in the package insert) gently against the forearm, perpendicular (vertical) to the elbow crease. […] The bleeding time was measured in seconds as the total duration of blood flow from the wound. […] Statistical evaluations were performed with the use of the SAS® software package version 8.2 at the Department of Global Pharmacometrics (Bayer HealthCare AG, Wuppertal, Germany). […] Student's paired t tests were used to compare treatments for these parameters, and 90% confidence intervals (CIs) for the difference were calculated.

Factor Xa = target: T1, Factor Xa (Homo sapiens, UniProt P00742); experiment: Factor Xa activity in plasma after dosing; type: in vivo; conditions: for median value of Factor Xa activity: 4 h after administration, rivaroxaban 15 mg
T1 construct: Blood samples were centrifuged to obtain plasma samples, which were then frozen and stored below −15 °C until analysis; from tissue; host or cells: plasma from blood samples of the healthy male study subjects
Method: (§1) The effects of rivaroxaban and clopidogrel on Factor Xa activity, prothrombin time (PT), activated partial thromboplastin time (aPTT) and HepTest were assessed, as described previously. Factor Xa activities above 0.1 IU/mL (the lower limit of quantification) were determined with a precision of 3.8–6.6% and an accuracy of 96–114%. […] When only clopidogrel was administered (treatment A), blood samples were taken after 4, 8, 24 and 48 h. Blood samples were centrifuged to obtain plasma samples, which were then frozen and stored below −15 °C until analysis.

[2] = Prothrombin time (PT) in plasma after dosing; type: in vivo, human
Method: as §1

[3] = Activated partial thromboplastin time (aPTT) in plasma after dosing; type: in vivo, human; conditions: combination compared with rivaroxaban alone
Method: as §1

[4] = HepTest in plasma after dosing; type: in vivo, human; conditions: combination compared with rivaroxaban alone
Method: as §1

platelet aggregation = experiment: ADP-stimulated platelet aggregation (Born method); type: in vivo, human; conditions: for platelet aggregation, median relative change from baseline: 4 h after drug administration
Method: A clopidogrel response screening period preceded the study (Figure 1). […] The initial dose of 300 mg clopidogrel was chosen for this study because this loading dose is generally used in patients with ACS [24]. A second dose of 75 mg clopidogrel was selected because this is the standard daily dose recommended by guidelines for use in patients with a variety of relevant conditions, including atrial fibrillation, stroke and ACS [24]. […] This method is based on the turbidimetric determination of cell suspensions. […] Measurement was performed at 650 nm. The individual response of changes of platelet aggregation to baseline was determined using 29 µM ADP in addition to an optimized individual activating regimen using ADP. […] Statistical evaluations were performed with the use of the SAS® software package version 8.2 at the Department of Global Pharmacometrics (Bayer HealthCare AG, Wuppertal, Germany). […] Student’s paired t tests were used to compare treatments for these parameters, and 90% confidence intervals (CIs) for the difference were calculated.

[5] = test system: GPIIb/IIIa, P-selectin and annexin V; experiment: Platelet activation markers by flow cytometry; type: in vivo, human; conditions: 4 h after drug administration, relative to baseline
Method: To assure uniformity of assays and to minimize sample manipulation, blood samples were mixed gently and processed without delay. Platelet-rich plasma was prepared by slow centrifugation, and platelets were labelled with monoclonal antibodies against GPIIb/IIIa (CD41a), […] (CD62p) and annexin V protein. Samples were analysed using a COULTER® EPICS® XLTM flow cytometer (Beckman Coulter, Inc.; Brea, CA, USA). The average immunofluorescence of the total population or the fraction of activated events was determined and compared with individual control samples before treatment.

healthy male subjects [6] = experiment: Safety and tolerability; type: in vivo, human; conditions: single dose of 15 mg rivaroxaban
Method: Safety and tolerability were assessed subjectively and objectively. Subjective assessment was obtained by asking the subjects non-leading questions about the occurrence of any adverse events or by spontaneous reporting of adverse events. Adverse events were classified according to their degree of severity. Objective tolerability was evaluated by monitoring cardiovascular parameters including heart rate, blood pressure and ECG parameters. In addition, blood tests, clinical chemistry, urine test and drug screening were part of the objective assessment.

[7] = individually optimized concentration of ADP
[8] = 12 h after administration of 15 mg rivaroxaban

T1 sequence (P00742 235-488 limits assumed): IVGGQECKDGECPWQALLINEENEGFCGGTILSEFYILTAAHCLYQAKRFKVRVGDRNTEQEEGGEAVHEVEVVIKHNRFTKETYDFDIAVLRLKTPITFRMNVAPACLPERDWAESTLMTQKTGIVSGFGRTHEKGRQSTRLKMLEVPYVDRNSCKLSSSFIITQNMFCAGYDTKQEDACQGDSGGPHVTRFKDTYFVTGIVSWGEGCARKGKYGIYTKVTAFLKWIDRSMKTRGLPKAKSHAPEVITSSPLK
T1 sequence (P00742 41-179 partner limits assumed): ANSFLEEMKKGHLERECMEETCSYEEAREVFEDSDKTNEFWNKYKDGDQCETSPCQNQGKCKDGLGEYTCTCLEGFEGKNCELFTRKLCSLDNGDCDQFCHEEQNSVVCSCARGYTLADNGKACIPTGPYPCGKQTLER

## COC(=O)[C@H](c1ccccc1Cl)N1CCc2sccc2C1 [clopidogrel]
Healthy male subjects [1]
  least squares-mean relative change in bleeding time compared with baseline: 2.0 fold
Factor Xa
  median value of Factor Xa activity: 0.9 U/mL
Factor Xa; combination compared with rivaroxaban alone
  effect on Factor Xa activity: no effect
[2]; compared with baseline, combination compared with rivaroxaban monotherapy
  effect on PT: did not change
[3]
  effect on aPTT: did not affect
[4]
  effect on HepTest: did not affect
Platelet aggregation; 29 µM ADP
  platelet aggregation, median relative change from baseline: 0.340
Platelet aggregation; [7]
  platelet aggregation, median relative change from baseline: 0.249
Platelet aggregation; of 27 healthy male subjects, single dose of 300 mg clopidogrel, 24 h after administration
  number of subjects identified as clopidogrel responders (more than 40% inhibition of platelet aggregation compared with baseline): 14
[5]
  effect on platelet activation markers: pronounced decrease

## O=C(NC[C@H]1CN(c2ccc(N3CCOCC3=O)cc2)C(=O)O1)c1ccc(Cl)s1 [rivaroxaban]
Healthy male subjects [1]
  least squares-mean relative change in bleeding time compared with baseline: 1.1 fold
Healthy male subjects [1]; clopidogrel responders
  bleeding time, overall least squares-means: 1.13 times baseline
Factor Xa
  median value of Factor Xa activity: 0.57 U/mL
Factor Xa; [8]
  Factor Xa inhibition, return to values within % of baseline: ≤ 10%
[2]; [8]
  PT, return to values within % of baseline: ≤ 10%
Platelet aggregation; 29 µM ADP
  platelet aggregation, median relative change from baseline: 1.1
Platelet aggregation; [7]
  platelet aggregation, median relative change from baseline: 0.9
Platelet aggregation; optimized ADP or fixed 29 µM ADP
  effect on platelet aggregation: not affected
[5]
  effect on platelet activation markers: no relevant effect
Healthy male subjects [6]
  safety and tolerability: safe and well tolerated
